This note sets out measurements from PMC10762035, “Molecular basis of human trace amine-associated receptor 1 activation” (Nature Communications, 2024).

Holding throughout (assay type): cell-based
One experiment concerns the target T1, hTA1 C5S (Homo sapiens, UniProt Q96RJ0, C5S).
T1 construct: expressed in transfected cells; host or cells: HEK293T
T1 sequence (Q96RJ0 1-339 C5S): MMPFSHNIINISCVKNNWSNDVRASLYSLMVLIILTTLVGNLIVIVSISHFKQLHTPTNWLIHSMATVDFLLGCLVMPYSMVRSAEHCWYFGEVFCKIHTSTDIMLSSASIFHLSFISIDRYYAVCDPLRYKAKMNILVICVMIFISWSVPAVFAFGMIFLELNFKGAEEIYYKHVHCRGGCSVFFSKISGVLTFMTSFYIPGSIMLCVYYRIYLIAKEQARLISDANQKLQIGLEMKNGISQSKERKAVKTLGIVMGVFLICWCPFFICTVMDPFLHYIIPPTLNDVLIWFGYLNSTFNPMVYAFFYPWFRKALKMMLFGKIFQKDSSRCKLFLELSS
Briefly: GloSensor cAMP accumulation assay, C5S mutant. Conditions: C5S, n=2. For orientation: cAMP levels reflect the balance of adenylyl cyclase and phosphodiesterase activity.

A further experiment concerns the target T2, hTA1 R83H (Homo sapiens, UniProt Q96RJ0, R83H).
T2 construct: expressed in transfected cells; host or cells: HEK293T
T2 sequence (Q96RJ0 1-339 R83H): T1 sequence (Q96RJ0 1-339 C5S) with S5C, R83H
Briefly: GloSensor cAMP accumulation assay, R83H mutant.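 Also: cells transiently co-expressing hTA1 and a cAMP GloSensor, luminescence read 30 min after agonist addition at room temperature, concentration–response fitted by non-linear regression.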 Conditions: R83H.

A further experiment concerns the target T3, hTA1 V184P (Homo sapiens, UniProt Q96RJ0, V184P).
T3 construct: expressed in transfected cells; host or cells: HEK293T
T3 sequence (Q96RJ0 1-339 V184P): T1 sequence (Q96RJ0 1-339 C5S) with S5C, V184P
Briefly: GloSensor cAMP accumulation assay, V184P mutant.

The next experiment addresses T4, hTA1 T271N (Homo sapiens, UniProt Q96RJ0, T271N).
T4 construct: expressed in transfected cells; host or cells: HEK293T
T4 sequence (Q96RJ0 1-339 T271N): T1 sequence (Q96RJ0 1-339 C5S) with S5C, T271N
Briefly: GloSensor cAMP accumulation assay, T271N mutant.

The next experiment concerns the target T5, hTA1 (Homo sapiens, UniProt Q96RJ0).
T5 construct: expressed in transfected cells; host or cells: HEK293T
T5 sequence (Q96RJ0 1-339): T1 sequence (Q96RJ0 1-339 C5S) with S5C
Briefly: Screen of 89 aminergic compounds at 10 µM, cAMP accumulation in HEK293T cells.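 Also: HEK293T cells co-transfected with hTA1 and GloSensor cAMP reporter, cAMP accumulation detected by luminescence.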 To be noted: 10 µM of compound; HEK293T; threshold log2-fold change of 2.

Where a chain is given by its changes, count along the chain named. Several values for one entry are separate records, joined by “and”; a condition that tells them apart may be missing. Equal values may be shown once. Read-outs that look alike come from different tables or passages of the source. A value given as a limit tells only on which side of the number the result lay.

In general, Emax refers to the size of the effect at its maximum, as opposed to the concentration needed. Regarding `CN1CC2c3ccccc3Oc3ccc(Cl)cc3C2C1` (stereo not drawn) [asenapine], the EC50 was 261 nM on hTA1 C5S (read-out: EC50); 1640 nM and 2310 nM at hTA1 R83H (Asenapine, per experiment, 3 replicates, read-out: pEC50 values Mean (converted)); 1950 nM on hTA1 R83H (n=2, read-out: EC50); 168 nM on hTA1 V184P (V184P, n=2, read-out: EC50); 246 nM and 114 nM on hTA1 V184P (V184S (so in the source), Asenapine, per experiment, 3 replicates, read-out: pEC50 values Mean (converted)); 496 nM and 463 nM on hTA1 T271N (T271N, Mean of one experiment, read-out: pEC50 values of Asenapine (converted)). The EC50 at hTA1 T271N (T271N, n=2, read-out: EC50) was 479 nM. Also, the Emax on hTA1 C5S (read-out: Span ± SEM (Emax normalized to β-PEA)) was 83.2 ± 1.59%; on hTA1 R83H (n=2, read-out: Span ± SEM (Emax normalized to β-PEA)) it was 17.1 ± 5.82%; on hTA1 V184P (V184P, n=2, read-out: Span ± SEM (Emax normalized to β-PEA)) it was 88.3 ± 8.11%; at hTA1 T271N (T271N, n=2, read-out: Span ± SEM (Emax normalized to β-PEA)), 122%; on hTA1 T271N (T271N, relative to β-PEA, read-out: Emax), 122%. The “ΔpEC50 values (each mutant value - WT average), Mean” value on hTA1 R83H (Asenapine) is -1.278 and -1.426. Also, the “Emax values, Mean” value at hTA1 R83H (Asenapine, per experiment, 3 replicates) is 22.9611 and 11.3307; at hTA1 V184P (V184S (so in the source), Asenapine, per experiment, 3 replicates), 96.3704 and 80.1474. Moreover, the “Emax values of Asenapine” value on hTA1 T271N (T271N, Mean of one experiment) was 142.994 and 100.859. For the same compound, at hTA1 T271N (hTA1 T271N mutant vs WT average, Figure 6B, each line is one experiment (3 replicates)), the “ΔEmax values (each mutant value - WT average), T271N, Mean” value is 54.2867 and 12.1519. Also, on hTA1, the “increase of signal over DMSO-treated controls (hTA1 activation)” value is on record as at least 4 fold.
